From patent publication US20250115571A1, “OXOPIPERAZINE DERIVATIVES” (Inthera Bioscience AG, priority 2017, published 2025) come the findings set out here.

Experiment [1] has as its system HCT116. Description: 9-day colony survival assay (CFA). The class given is cell-based. The following applies: Homo sapiens, HCT-116, 216 h, HCT116 (colon), read-out: GI50 (50% growth inhibition).
The test system of another experiment is A549. In words: 9-day colony survival assay (CFA). The class given is cell-based. As to conditions: Homo sapiens, 216 h, A549 (lung), read-out: GI50 (50% growth inhibition).
The subject of experiment [2] is HCT116. In words: 5-day cell proliferation assay (CTG). The class given is cell-based. The following applies: Homo sapiens, HCT-116, 120 h, HCT116, Colorectal. As for the experimental part:
(§1) For screening using a proliferation assay, the cells used were cultured at 37° C. with 5% CO2, except for those being cultured with L-15 medium (37° C. and 100% air, TABLE 7). Compound stock solutions (10 mM) were made in sterile water, aliquoted and stored at room temperature. Cisplatin was used as reference Control. Plastic consumables, culture media and supplements were purchased from well-known suppliers (TABLE 8).
(§2) Cell seeding (day −1). When necessary, cells were trypsinized using standard methods (see e.g. example 01). Cells were collected and resuspended in 5-6 mL of appropriate culture medium, counted and diluted to the needed density. Fifty-four μl (microliter) cells were seeded per well in a 384-well plate. Extra four wells per cell line were seeded on an additional plate for Day 0 reading (baseline cell density). Cells were incubated at 37° C. overnight.
(§3) Compound treatment and Day 0 reading (day 0). Tenfold final concentration of test compounds and Cisplatin were prepared in cell culture media (work dilutions). Six μl of work dilution solutions were dispensed into the corresponding wells in 384-well plates to bring the total volume up to 60 μl. Conditions were tested in triplicate. The plates were then incubated at 37° C. for five days. For the day 0 reading, 30 μl of CTG and 6 μl cell culture medium were added to the day 0 plates, contents mixed for 2 min on a plate shaker, and the plates incubated for 10 min at room temperature in the dark. Luminescence was recorded on an EnVision Multi Label Reader (2104-0010A, PerkinElmer, USA).
(§4) Endpoint CTG reading (day 5). The amounts of cells in the plates was determined by endpoint CTG-test. Thirty μl of CTG were added to the 60 μl of cell culture per well, contents mixed for 2 min on a plate shaker, and the plates incubated for 10 min at room temperature in the dark. Luminescence was recorded on an EnVision Multi Label Reader.
(§5) Data analysis. Fifty percent growth inhibition concentrations (GI50) were calculated based on percentage of control data (untreated cells) from each cell line (TABLE 5 (this example) and TABLE 6). Curves were fitted using a nonlinear regression model with a sigmoidal dose response. Examples of obtained curves are depicted in FIG. 2A-2F.

Another experiment has as its system SW48. In words: 5-day cell proliferation assay (CTG). The class given is cell-based. As to conditions: Homo sapiens, 120 h, SW48, Colorectal. Here is the method:
as §1, §2, §3, §4, §5

The next experiment concerns HT-29. In words: 5-day cell proliferation assay (CTG). The class given is cell-based. As to conditions: Homo sapiens, 120 h, HT-29, Colorectal. As for the experimental part:
as §1, §2, §3, §4, §5

In the next experiment the test system is SW948. In words: 5-day cell proliferation assay (CTG). The class given is cell-based. The following applies: Homo sapiens, 120 h, SW948, Colorectal. As for the experimental part:
as §1, §2, §3, §4, §5

The subject of a further experiment is RPWE-1. Description: 5-day cell proliferation assay (CTG). The class given is cell-based. The following applies: Homo sapiens, 120 h, RPWE-1 (Table 6: RWPE-1), Prostate. As for the experimental part: as §1, §2, §3, §4, §5
A further experiment deals with SNU-16. Description: 5-day cell proliferation assay (CTG). The class given is cell-based. As to conditions: Homo sapiens, 120 h, SNU-16, Stomach/Gastric. As for the experimental part:
as §1, §2, §3, §4, §5

The subject of the next experiment is HS 746.T. In words: 5-day cell proliferation assay (CTG). The class given is cell-based. The following applies: Homo sapiens, Hs746T, 120 h, Stomach/Gastric. Here is the method:
as §1, §2, §3, §4, §5

In another experiment the test system is SNU-5. In words: 5-day cell proliferation assay (CTG). As to conditions: Homo sapiens, 120 h, SNU-5, Stomach/Gastric. The class given is cell-based. Here is the method:
as §1, §2, §3, §4, §5

The subject of another experiment is MRC-5. In words: 5-day cell proliferation assay (CTG). The class given is cell-based. As to conditions: Homo sapiens, MRC5, 120 h, MRC-5, Lung. Here is the method: as §1, §2, §3, §4, §5
The subject of another experiment is HS-5. Description: 5-day cell proliferation assay (CTG). The class given is cell-based. The following applies: Homo sapiens, HS5, 120 h; HS-5, 5-day cell proliferation. Here is the method: as §1, §2, §3, §4, §5
The next experiment deals with HDFA (fibroblast). Description: 5-day cell proliferation assay (CTG). The class given is cell-based. The following applies: Homo sapiens, 120 h, Skin, highest tested concentration 10 μM. Here is the method: as §1, §2, §3, §4, §5
Experiment [3] relates to MKN45 human gastric adenocarcinoma cells. In words: Cell-derived xenograft mouse model for gastric cancer (MKN45 CDX). As to conditions: p.o.; for Tumor Size day 29: MKN45 CDX, female BALB/c nude mice, Mean ± SEM; for T/C: day 29, tumor-to-control ratio (volume/volume). The class given is in vivo. As for the experimental part:
(§6) Female BALB/c nude mice (8-9 weeks of age) were injected with MKN45 human gastric adenocarcinoma cells. The cells were inoculated subcutaneously into the left flank of 48 mice. When tumors reached a mean volume of approximately 103 mm^3, mice were randomly assigned to eight treatment groups of each six mice (TABLE 16). Body weights were measured three times weekly prior to the initiation of dosing and daily thereafter. Tumor burden was assessed by caliper measurement twice weekly. Dosing breaks were applied when tolerability issues arose (body weight loss>10%). The study was terminated four weeks post first dosing. The experiment was performed in the Crown Bioscience Ltd. (Beijing) testing facility (Ground Floor, Light Muller Building, Changping Sector of Zhongguancun Scientific Park, No. 21 Huoju Road, Changping District, Beijing, CHN).

Experiment [4] concerns HCT116 human colon cancer cells. Description: Cell-derived xenograft mouse model for colorectal cancer (HCT116 CDX). The class given is in vivo. The following applies: for T/C (tumor-to-control ratio, volume/volume): day 37. As for the experimental part: as §6, with “HCT116” for “MKN45”, “colon cancer” for “gastric adenocarcinoma”, “100” for “103”, “14).” for “16).”

On to `CC(C)C[C@@H]1NCCN([C@@H](CC(C)C)C(=O)N2CCC3(C[C@@H]2C)OCC(CN2CCCC2)CO3)C1=O` (stereo partly drawn) [Compound 258, (3S)-1-[(2S)-4-methyl-1-oxo-1-[(3s,6s,8S)-8-methyl-3-(pyrrolidin-1-ylmethyl)-1,5-dioxa-9-azaspiro[5.5]undec-an-9-yl]pentan-2-yl]-3-(2-methylpropyl)piper-azin-2-one (^≠), isomer Z], for which the GI50 (as a rule, the concentration giving 50% growth inhibition) was found to be 1.5 nM in the experiment with HCT116 [1]; 5 nM in the experiment on A549; 5 nM with HCT116 [2]; 9 nM in the experiment with SW48; 4 nM in the experiment with HT-29; 10 nM in the experiment with SW948. Moreover, the GI50 in the experiment on RPWE-1 is 4 nM; in the experiment on SNU-16 it was 13 nM; with HS 746.T, 8 nM; with SNU-5 it was 4 nM; with MRC-5, 12 nM; in the experiment on HS-5 it was 5 nM. In the experiment with HDFA (fibroblast), this compound showed a 50% growth inhibitory concentration (GI50) greater than 10000 nM. The “Tumor Size day 29” value in [3] (3 mg/kg, QD) was found to be 428.0 ± 52.5 mm^3; in experiment [3] (6 mg/kg, QD), 186.9 ± 17.3 mm^3; in experiment [3] (20 mg/kg, BIW), 763.4 ± 84.5 mm^3. Further, the T/C (in general, the result in the treated group divided by that in the control group, in per cent) in experiment [3] (3 mg/kg, QD) was found to be 36.0%; in experiment [3] (6 mg/kg, QD), 15.7%; in experiment [3] (20 mg/kg, BIW), 64.2%. Also, the “Tumor Size day 37 (Mean ± SEM)” value in [4] (3 mg/kg, p.o. QD) came to 436.2 ± 58.9 mm^3; in [4] (6 mg/kg, p.o. QD), 253.2 ± 39.2 mm^3; in experiment [4] (20 mg/kg, p.o. BIW), 696.8 ± 93.7 mm^3. Besides, the “p vs. Group-2 (Avastin, 10 mg/kg, BIW)” value is reported as “Group-2 vs. Group-5, p = 0.028;” in experiment [4] (3 mg/kg, p.o. QD); “Group-2 vs. Group-4, p = 0.001;” in [4] (6 mg/kg, p.o. QD); “Group-2 vs. Group-3, p = 0.865;” in experiment [4] (20 mg/kg, p.o. BIW). The “T/C (tumor-to-control ratio, volume/volume)” value is recorded as 36.7% in experiment [4] (3 mg/kg, p.o. QD); 21.3% in experiment [4] (6 mg/kg, p.o. QD); 58.7% in experiment [4] (20 mg/kg, p.o. BIW).

Consider `CC(C)C[C@@H]1NCCN([C@@H](CC(C)C)C(=O)N2CCC3(C[C@@H]2C)OCC(CN2CCC4(CC2)CC4)CO3)C1=O` (stereo partly drawn) [Compound 279, (3S)-1-[(2S)-4-methyl-1-oxo-1-[(3s,6s,8S)-3-{6-azaspiro[2.5]octan-6-ylmethyl}-8-methyl-1,5-dioxa-9-azaspiro[5.5]undec-an-9-yl]pentan-2-yl]-3-(2-methylpropyl)piper-azin-2-one (^≠), isomer Z], for which the GI50 in the experiment with HCT116 [1] came out at 1 nM; in the experiment on A549 it was 5 nM; in the experiment on HCT116 [2] it was 3 nM; with SW48 it was 6 nM; in the experiment with HT-29, 4 nM; with SW948, 3 nM. For the same compound, the GI50 in the experiment with RPWE-1 amounted to 3 nM; in the experiment on SNU-16 it was 10 nM; in the experiment on HS 746.T, 5 nM; in the experiment with SNU-5, 3 nM; with MRC-5, 10 nM; with HS-5, 3 nM. In the experiment on HDFA (fibroblast), this compound yielded a concentration for 50% growth inhibition (GI50) greater than 10000 nM. The “Tumor Size day 37 (Mean ± SEM)” value in experiment [4] (6 mg/kg, p.o. QD) is 1064.0 ± 141.1 mm^3. The “p vs. Group-2 (Avastin, 10 mg/kg, BIW)” value in experiment [4] (6 mg/kg, p.o. QD) is on record as “Group-2 vs. Group-6, p = 0.070;”. Moreover, in experiment [4] (6 mg/kg, p.o. QD), the “T/C (tumor-to-control ratio, volume/volume)” value is listed as 89.6%.

Regarding `CC(C)C[C@@H]1NCCN([C@@H](CC(C)C)C(=O)N2CCC3(C[C@@H]2C)OCC(CN2CCC2)CO3)C1=O` (stereo partly drawn) [Compound 284, (3S)-1-[(2S)-4-methyl-1-oxo-1-[(3s,6s,8S)-3-(azetidin-1-ylmethyl)-8-methyl-1,5-dioxa-9-azaspiro[5.5]undec-an-9-yl]pentan-2-yl]-3-(2-methylpropyl)piper-azin-2-one (^≠), isomer Z], the concentration for 50% growth inhibition (GI50) stood at 1.5 nM in the experiment on HCT116 [1]; 10 nM in the experiment with A549; 9 nM with HCT116 [2]; 14 nM in the experiment with SW48; 7 nM in the experiment on HT-29; 12 nM in the experiment with SW948. For the same compound, the GI50 in the experiment with RPWE-1 was found to be 10 nM; in the experiment with SNU-16, 22 nM; with HS 746.T, 14 nM; in the experiment with SNU-5, 6 nM; with MRC-5, 25 nM; with HS-5 it was 10 nM. In the experiment on HDFA (fibroblast), this compound gave a 50% growth inhibitory concentration (GI50) greater than 10000 nM. Further, the “Tumor Size day 29” value is recorded as 709.0 ± 55.6 mm^3 in experiment [3] (3 mg/kg, QD) and 592.6 ± 109.7 mm^3 in experiment [3] (6 mg/kg, QD). For the same compound, the T/C in [3] (3 mg/kg, QD) was 59.6%; in experiment [3] (6 mg/kg, QD) it was 49.8%. Also, the “Tumor Size day 37 (Mean ± SEM)” value in [4] (3 mg/kg, p.o. QD) is 827.4 ± 125.7 mm^3; in [4] (6 mg/kg, p.o. QD), 942.0 ± 114.9 mm^3. Moreover, the “p vs. Group-2 (Avastin, 10 mg/kg, BIW)” value in [4] (3 mg/kg, p.o. QD) is recorded as “Group-2 vs. Group-8, p = 0.509;”; in experiment [4] (6 mg/kg, p.o. QD) it was “Group-2 vs. Group-7, p = 0.165;”. The “T/C (tumor-to-control ratio, volume/volume)” value in experiment [4] (3 mg/kg, p.o. QD) was found to be 69.7%; in [4] (6 mg/kg, p.o. QD), 79.3%.
